Test results from ChEMBL document CHEMBL4715719, “Synthesis and biological properties of polyamine modified flavonoids as hepatocellular carcinoma inhibitors” (Eur J Med Chem, 2016).
Active and inactive are the calls of the source. No cut-off for these calls is given here.

Key:
HepG2 [1] = test: Antiproliferative activity against human HepG2 cells assessed as inhibition of cell proliferation measured after 48 hrs in presence of 800 uM aspirin by MTT assay; type: functional, cell-based; conditions: HepG2, 48 h
HepG2 [2] = test: Antiinvasive activity against human HepG2 cells assessed as inhibition of cell invasion measured after 48 hrs by wound healing assay; type: functional, cell-based; conditions: dose 50-70 µM
[3] = Toxicity in Kunming mouse implanted with mouse H22 cells assessed as change in body weight at 10 mg/kg, iv administered for 7 consecutive days starting from day 11 post inoculation and measured after 18 days (reference value: 5.2 %); type: organism-based; conditions: in vivo, 192 h, time 8 day
H22 [4] = test: (§1) Antitumor activity against mouse H22 cells implanted in Kunming mouse assessed as reduction in tumor weight at 10 mg/kg, iv administered for 7 consecutive days starting from day 8 post inoculation and measured after 16 days (reference value: 2.15 +/- 0.51 g); type: functional; conditions: time 8 day
HepG2 [5] = test: Induction of lysosomal impairment in human HepG2 cells after 48 hrs by Lyso-tracker Red staining based assay; type: functional, cell-based; conditions: dose 50-70 µM
[6] = Toxicity in iv dosed Kunming mouse assessed as maximum tolerated dose; type: organism-based; conditions: in vivo
HepG2 [7] = test: Antimigratory activity against human HepG2 cells assessed as inhibition of cell migration measured after 48 hrs by transwell assay; type: functional, cell-based; conditions: dose 50-70 µM
[8] = Antiproliferative activity against mouse H22 cells assessed as inhibition of cell proliferation measured after 48 hrs by MTT assay; type: functional, cell-based
H22 [9] = test: Potentiation of aspirin-induced antitumor activity against mouse H22 cells implanted in Kunming mouse assessed as tumor growth inhibition at 10 mg/kg, iv administered for 7 consecutive days starting from day 8 post inoculation cotreated with aspirin at 10 mg/kg and measured after 16 days (reference value: 36 %); type: functional; conditions: 192 h, time 8 day, read-out: TGI
HepG2 [10] = test: Antiproliferative activity against human HepG2 cells assessed as inhibition of cell proliferation at 100 uM measured after 48 hrs by MTT assay relative to control; type: functional
H22 [11] = test: as §1, with “Potentiation of DFMO-induced antitumor” for “Antitumor”, “inoculation cotreated with DFMO at 200 mg/kg” for “inoculation”, “1.31” for “2.15”, “0.33” for “0.51”; type: functional; conditions: time 8 day
[12] = Toxicity in Kunming mouse implanted with mouse H22 cells assessed as change in mouse body weight at 10 mg/kg, iv administered for 7 consecutive days starting from day 8 post inoculation cotreated with aspirin at 10 mg/kg and measured after 16 days (reference value: 16.7 %); type: organism-based; conditions: in vivo, 192 h, time 8 day
Mus musculus [13] = test: Downregulation of Bcl-2 in Kunming mouse implanted with mouse H22 cells at 10 to 30 uM measured after 48 hrs by immunofluorescence analysis; type: functional; conditions: dose 10-30 µM
[14] = Cytotoxicity against human QSG7701 cells assessed as inhibition of cell proliferation at 30 uM measured after 48 hrs by MTT assay relative to control; type: cell-based
HepG2 [15] = test: Induction of apoptosis in human HepG2 cells assessed as upregulation of phosphorylated p38 at 50 to 70 uM measured after 48 hrs by immunofluorescence assay; type: functional, cell-based; conditions: dose 50-70 µM
SMMC-7721 [16] = test: Antiproliferative activity against human […] cells assessed as inhibition of cell proliferation at 30 uM measured after 48 hrs by MTT assay relative to control; type: functional
[17] = Toxicity in Kunming mouse implanted with mouse H22 cells assessed as mouse mortality at 10 mg/kg, iv administered for 7 consecutive days starting from day 8 post inoculation cotreated with aspirin at 10 mg/kg and measured after 16 days; type: organism-based; conditions: in vivo, 192 h, time 8 day
H22 [18] = test: (§2) Potentiation of DFMO-induced antimetastatic activity against mouse H22 cells implanted in Kunming mouse assessed as number of metastatic focus at 10 mg/kg, iv administered for 7 consecutive days starting from day 11 post inoculation cotreated with DFMO at 200 mg/kg and measured after 18 days (reference value: 35.1 +/- 12); type: functional; conditions: time 8 day
HepG2 [19] = test: Antiproliferative activity against human HepG2 cells assessed as inhibition of cell proliferation at 30 uM measured after 48 hrs by MTT assay relative to control; type: functional
H22 [20] = test: Potentiation of aspirin-induced antimetastatic activity against mouse H22 cells implanted in Kunming mouse assessed as inhibition of metastasis at 10 mg/kg, iv administered for 7 consecutive days starting from day 11 post inoculation cotreated with aspirin at 10 mg/kg and measured after 18 days relative to control; type: functional; conditions: 192 h, time 8 day
H22 [21] = test: Potentiation of DFMO-induced antimetastatic activity against mouse H22 cells implanted in Kunming mouse assessed as inhibition of metastasis at 10 mg/kg, iv administered for 7 consecutive days starting from day 11 post inoculation cotreated with DFMO at 200 mg/kg and measured after 18 days relative to control; type: functional; conditions: 192 h, time 8 day
Mus musculus [22] = test: Downregulation of Bcl-2 in Kunming mouse implanted with mouse H22 cells at 10 to 30 uM after 48 hrs in presence of aspirin by immunofluorescence analysis; type: functional; conditions: dose 10-30 µM
H22 [23] = test: as §2, with “aspirin-induced” for “DFMO-induced”, “aspirin” for “DFMO”, “10” for “200”, “43.6” for “35.1”, “13)” for “12)”; type: functional; conditions: time 8 day
HepG2 [24] = test: Induction of apoptosis in human HepG2 cells after 48 hrs by AO/EB staining based assay; type: functional, cell-based; conditions: dose 50-70 µM
HepG2 [25] = test: Induction of apoptosis in human HepG2 cells assessed as activation of caspase 3 at 50 to 70 uM measured after 48 hrs by immunofluorescence assay; type: functional, cell-based; conditions: dose 50-70 µM
HepG2 [26] = test: Induction of apoptosis in human HepG2 cells assessed as activation of caspase 9 at 50 to 70 uM measured after 48 hrs by immunofluorescence assay; type: functional, cell-based; conditions: dose 50-70 µM
H22 [27] = test: Potentiation of DFMO-induced antitumor activity against mouse H22 cells implanted in Kunming mouse assessed as tumor growth inhibition at 10 mg/kg, iv administered for 7 consecutive days starting from day 8 post inoculation cotreated with DFMO at 200 mg/kg and measured after 16 days (reference value: 38.8 %); type: functional; conditions: 192 h, time 8 day, read-out: TGI
[28] = Toxicity in Kunming mouse implanted with mouse H22 cells assessed as mouse mortality during lug metastasis assay at 10 mg/kg, iv administered for 7 consecutive days starting from day 8 post inoculation and measured after 16 days; type: organism-based; conditions: in vivo, 192 h, time 8 day
SMMC-7721 [29] = test: Antiproliferative activity against human […] cells assessed as inhibition of cell proliferation at 100 uM measured after 48 hrs by MTT assay relative to control; type: functional
H22 [30] = test: Antimetastatic activity against mouse H22 cells implanted in Kunming mouse assessed as number of metastatic focus at 10 mg/kg, iv administered for 7 consecutive days starting from day 11 post inoculation and measured after 18 days (reference value: 5.73 +/- 14.6); type: functional; conditions: time 8 day
Mus musculus [31] = test: Upregulation of phosphorylated p38 in Kunming mouse implanted with mouse H22 cells assessed as activation of p53 measured after 48 hrs in presence of aspirin by immunofluorescence analysis; type: functional; conditions: dose 10-30 µM
HepG2 [32] = test: Induction of ROS generation in human HepG2 cells after 48 hrs by DCFH-DA staining based assay; type: functional, cell-based; conditions: dose 50-70 µM
HepG2 [33] = test: Induction of mitochondrial membrane potential loss in human HepG2 cells after 48 hrs by Rh123 staining based assay; type: functional, cell-based; conditions: dose 50-70 µM
Mus musculus [34] = test: Upregulation of phosphorylated JNK in Kunming mouse implanted with mouse H22 cells assessed as activation of p53 measured after 48 hrs by immunofluorescence analysis; type: functional; conditions: dose 10-30 µM
HepG2 [35] = test: Antimigratory activity against human HepG2 cells assessed as inhibition of cell migration at 50 to 70 uM in presence of aspirin measured after 48 hrs by transwell assay; type: functional, cell-based; conditions: dose 50-70 µM
HepG2 [36] = test: Antiinvasive activity against human HepG2 cells assessed as inhibition of cell invasion at 50 to 70 uM measured after 48 hrs in presence of aspirin by wound healing assay; type: functional, cell-based; conditions: dose 50-70 µM
[37] = Toxicity in Kunming mouse implanted with mouse H22 cells assessed as change in mouse body weight at 10 mg/kg, iv administered for 7 consecutive days starting from day 8 post inoculation cotreated with DFMO at 200 mg/kg and measured after 16 days (reference value: 16.2 %); type: organism-based; conditions: in vivo, 192 h, time 8 day

Cl.Cl.NCCCNCC(=O)NCc1cccc2c(=O)cc(-c3cccc4ccccc34)oc12
IC50 (HepG2 [1]): 59.2 µM
inhibition (HepG2 [2]): Dose-dependent effect
Activity [3]: 3.7%
Activity (H22 [4]): 1.3 g
Activity (HepG2 [5]): Dose-dependent effect
MTD [6]: 20 mg/kg
inhibition (HepG2 [7]): Dose-dependent effect
IC50 [8]: 32.1 µM
inhibition in vivo at 10 mg/kg (H22 [9]): 69.2%
inhibition at 100 µM (HepG2 [10]): 84.2%
Activity (H22 [11]): 1.22 g
Activity [12]: 19.4%
Activity (Mus musculus [13]): Active
inhibition at 48 h, 30 µM [14]: < 5%
Activity (HepG2 [15]): Active
inhibition at 30 µM (SMMC-7721 [16]): 5.1%
Activity [17]: Non-Toxic
Activity (H22 [18]): 29.3
inhibition at 30 µM (HepG2 [19]): 7.9%
inhibition in vivo at 10 mg/kg (H22 [20]): 59.9%
inhibition in vivo at 10 mg/kg (H22 [21]): 48.9%
Activity (Mus musculus [22]): Active
Activity (H22 [23]): 23
Activity (HepG2 [24]): Dose-dependent effect
Activity (HepG2 [25]): Active
Activity (HepG2 [26]): inactive
inhibition in vivo at 10 mg/kg (H22 [27]): 43%
Activity [28]: Non-Toxic
inhibition at 100 µM (SMMC-7721 [29]): 87.1%
Activity (H22 [30]): 40.5
Activity (Mus musculus [31]): Active
Activity (HepG2 [32]): Dose-dependent effect
Activity (HepG2 [33]): Dose-dependent effect
Activity (Mus musculus [34]): Dose-dependent effect
inhibition (HepG2 [35]): Active
inhibition (HepG2 [36]): Active
Activity [37]: 16.7%
